In PubChem BioAssay AID1919008 (Molecular Pharmacology Branch, DTP, NCI, 2023):

Tested on: DMS-114 complex spheroids with HUVEC/MSC, growth % test/control
Experiment: Anticancer human tumor DMS-114 cell line growth inhibition [AhR];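 also: spheroids exposed to agents for 7 days before readout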;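 as to viability, T/C: 100% = DMSO vehicle control wells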
Settings: for IC50: curve of first compound; for viability, T/C: stronger effect = lower value
How it was run: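 Complex tumor spheroids co-cultured with HUVEC and human MSC stroma; AhR antagonists tested in combination with standard-of-care and investigational agents. Top concentration at or near clinical Cmax (else 10 microM), half-log dilutions; growth expressed as percent test/control.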

[1] = second compound 0.1 µM, first compound 0.0316 µM
[2] = second compound 0.1 µM, first compound 0.1 µM
[3] = second compound 0.1 µM, first compound 0.316 µM
[4] = second compound 0.1 µM, first compound 1 µM
[5] = second compound 0.1 µM, first compound 3.16 µM
[6] = second compound 0.1 µM, first compound 10 µM
[7] = second compound 0.316 µM, first compound 0.0316 µM
[8] = second compound 0.316 µM, first compound 0.1 µM
[9] = second compound 0.316 µM, first compound 0.316 µM
[10] = second compound 0.316 µM, first compound 1 µM
[11] = second compound 0.316 µM, first compound 3.16 µM
[12] = second compound 0.316 µM, first compound 10 µM
[13] = second compound 1 µM, first compound 0.0316 µM
[14] = second compound 1 µM, first compound 0.1 µM
[15] = second compound 1 µM, first compound 0.316 µM
[16] = second compound 1 µM, first compound 1 µM
[17] = second compound 1 µM, first compound 3.16 µM
[18] = second compound 1 µM, first compound 10 µM
[19] = second compound 3.16 µM, first compound 0.0316 µM
[20] = second compound 3.16 µM, first compound 0.1 µM
[21] = second compound 3.16 µM, first compound 0.316 µM
[22] = second compound 3.16 µM, first compound 1 µM
[23] = second compound 3.16 µM, first compound 3.16 µM
[24] = second compound 3.16 µM, first compound 10 µM
[25] = second compound 10 µM, first compound 0.0316 µM
[26] = second compound 10 µM, first compound 0.1 µM
[27] = second compound 10 µM, first compound 0.316 µM
[28] = second compound 10 µM, first compound 1 µM
[29] = second compound 10 µM, first compound 3.16 µM
[30] = second compound 10 µM, first compound 10 µM

| SMILES | IC50 (second compound 0.1 µM) [µM] | IC50 (second compound 0.316 µM) [µM] | IC50 (second compound 1 µM) [µM] | IC50 (second compound 3.16 µM) [µM] | IC50 (second compound 10 µM) [µM] | viability, T/C [1] [%] | viability, T/C [2] [%] | viability, T/C [3] [%] | viability, T/C [4] [%] | viability, T/C [5] [%] | viability, T/C [6] [%] | viability, T/C [7] [%] | viability, T/C [8] [%] | viability, T/C [9] [%] | viability, T/C [10] [%] | viability, T/C [11] [%] | viability, T/C [12] [%] | viability, T/C [13] [%] | viability, T/C [14] [%] | viability, T/C [15] [%] | other results |
| --- | --- | --- | --- | --- | --- | --- | --- | --- | --- | --- | --- | --- | --- | --- | --- | --- | --- | --- | --- | --- | --- |
| CC(C)c1c(-c2ccccc2)nc2c(C#N)c[nH]n2c1=O + Cc1cncc(-c2nc(NCCc3c[nH]c4ccccc34)c3ncn(C(C)C)c3n2)c1 | > 10 | > 10 | > 10 | > 10 | < 0.0316 | 111 | 100 | 103 | 108 | 97.4 | 97.4 | 107 | 97.9 | 103 | 92.6 | 111 | 95.3 | 107 | 107 | 102 | viability, T/C [16]: 112%; viability, T/C [17]: 101%; viability, T/C [18]: 108%; viability, T/C [19]: 92.9%; viability, T/C [20]: 80.6%; viability, T/C [21]: 83.3%; viability, T/C [22]: 88.8%; viability, T/C [23]: 86.4%; viability, T/C [24]: 92.6%; viability, T/C [25]: 30.4%; viability, T/C [26]: 40.1%; viability, T/C [27]: 33.3%; viability, T/C [28]: 40%; viability, T/C [29]: 32.5%; viability, T/C [30]: 46.4% |
| COc1ccc([C@@H](O)c2cc(-c3ncnc4cc(N5CCOCC5)ccc34)c(F)cc2Cl)nn1 + Cc1cncc(-c2nc(NCCc3c[nH]c4ccccc34)c3ncn(C(C)C)c3n2)c1 | > 10 | > 10 | > 10 | 7.74 | < 0.0316 | 125 | 95.8 | 102 | 104 | 107 | 55.7 | 101 | 93 | 96.2 | 104 | 87.5 | 52.2 | 98.7 | 103 | 99.8 | viability, T/C [16]: 107%; viability, T/C [17]: 94.4%; viability, T/C [18]: 53.2%; viability, T/C [19]: 87%; viability, T/C [20]: 90.1%; viability, T/C [21]: 98.7%; viability, T/C [22]: 94.5%; viability, T/C [23]: 85.4%; viability, T/C [24]: 39.5%; viability, T/C [25]: 35.6%; viability, T/C [26]: 38.9%; viability, T/C [27]: 29.7%; viability, T/C [28]: 29.7%; viability, T/C [29]: 17.9%; viability, T/C [30]: 12.4% |
